Patent publication US20220331322A1, “COMPOUND FOR INHIBITING CELL DEATH” (Christian-Albrechts-Universität zu Kiel, priority 2019, published 2022)

Key:
[1] = system: Jurkat cells; assay: Anti-Fas antibody induced RIPK1-independent apoptosis; format: cell-based, human; settings: 5 ng/ml anti-Fas antibody, 5 h, zVAD 25 μM, primidone 1 mM
Procedure: To this end, human T cells (Jurkat cells) were incubated for 5 h at 37° C. in the presence of (a) vehicle, (b) 5 ng/ml anti-Fas antibody, (c) 5 ng/ml anti-Fas antibody in combination with 25 μM of the pan-caspase inhibitor zVAD, and (d) 5 ng/ml anti-Fas antibody in combination with 1 mM primidone. The addition of the anti-Fas antibody induces apoptosis, a caspase-dependent form of regulated cell death that can be inhibited by the addition of the pan-caspase inhibitor zVAD.

[2] = biological target: T1, RIPK1 (Homo sapiens, UniProt Q13546); assay: KINOMEscan profiling kinase assay
T1 sequence (Q13546 1-671): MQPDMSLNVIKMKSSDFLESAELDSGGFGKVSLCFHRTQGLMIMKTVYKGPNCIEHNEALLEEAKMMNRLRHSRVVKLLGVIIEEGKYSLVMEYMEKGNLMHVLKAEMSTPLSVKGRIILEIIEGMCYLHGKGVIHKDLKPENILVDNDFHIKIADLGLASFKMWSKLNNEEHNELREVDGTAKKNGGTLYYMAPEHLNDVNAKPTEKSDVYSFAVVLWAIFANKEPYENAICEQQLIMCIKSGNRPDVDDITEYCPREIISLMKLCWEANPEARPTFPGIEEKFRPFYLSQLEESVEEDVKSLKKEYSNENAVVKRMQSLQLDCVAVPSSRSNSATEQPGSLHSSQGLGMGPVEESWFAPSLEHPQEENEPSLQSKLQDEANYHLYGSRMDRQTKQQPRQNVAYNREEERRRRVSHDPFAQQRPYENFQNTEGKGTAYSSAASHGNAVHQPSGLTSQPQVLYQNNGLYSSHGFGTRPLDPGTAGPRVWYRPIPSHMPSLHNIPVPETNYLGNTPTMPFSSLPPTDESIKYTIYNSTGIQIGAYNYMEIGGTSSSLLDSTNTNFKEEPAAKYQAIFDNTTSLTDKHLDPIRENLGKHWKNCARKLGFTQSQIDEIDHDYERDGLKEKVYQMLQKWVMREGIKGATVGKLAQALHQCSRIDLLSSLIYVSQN
Procedure: To clarify, a KINOMEscan™ profiling kinase assay was performed. […] Dissociation constants (Kd) for test compound-kinase interactions are calculated by measuring the amount of kinase captured on the solid support as a function of the test compound concentration.

[3] = system: NF-κB; assay: Western blot of NF-κB activation (p-NF-κB) after TZ stimulation; format: cell-based, murine; settings: L929, 100 ng/ml TNF-α + 25 μM zVAD (TZ), 1 mM primidone
Procedure: It was then analyzed whether primidone interferes with the canonical NF-κB signaling pathway which drives the expression of pro-survival molecules. The binding of TNF-α to its corresponding receptor (TNFR1) initially results in the activation of the NF-κB signaling pathway. In this early phase of TNF activation, the cells are protected from cell death by the presence of a membrane-bound complex known as complex I which is formed within seconds after engagement of TNFR1 by TNF-α. This complex induces the expression of pro-survival molecules via activation of the canonical NF-κB pathway. As the default response of most cells to TNF-α is survival and NF-κB-mediated upregulation of pro-survival genes, it was analyzed whether primidone functions in a survival-signaling mode and thus indirectly prevents cell death signaling. For this purpose, murine L929 cells were stimulated at 37° C. for different time periods (as indicated) with 100 ng/ml TNF-α+25 μM zVAD (TZ) in the absence (vehicle) or presence of 1 mM primidone. Subsequently, a Western blot analysis of the cell lysates using a specific p-NF-κB antibody was performed.

[4] = system: L929 cells; assay: Time profile of blocking TZ-induced necroptosis, FACS (7-AAD/Annexin V); format: cell-based, murine; settings: L929, 10 ng/ml TNF-α + 25 μM zVAD (TZ), 24 h; primidone 1 mM, Nec-1s 25 μM; one representative experiment of three
Procedure: The time profile of primidone for blocking cell death was compared to the one of Nec-1s. For this purpose, murine L929 cells were stimulated at 37° C. for 24 h with 10 ng/ml TNF-α+25 μM zVAD (TZ) in the presence of 1 mM primidone and 25 μM Nec-1s, respectively, for the indicated durations. Nec-1s and primidone were added 30 min before, 60 min and 180 min after the induction of RIPK1-mediated necroptosis, respectively. Cell death was quantified by FACS analysis using 7-amino-actinomycin D and phosphatidylserine accessibility (Annexin V staining) as markers.

[5] = system: TNF-α-induced complex I; assay: Immunoprecipitation of TNF-α-induced complex I after TSZ, RIPK1 western blot; format: cell-based, human; settings: U937, TSZ (100 ng/ml Fc-TNF-α + 1 μM SM164 + 25 μM zVAD), 1 mM primidone
Procedure: It was tested whether primidone interferes with binding of TNF-α to its corresponding receptor TNFR1. To induce cell death, human U937 cells were treated in the absence (vehicle) or presence of 1 mM primidone with 100 ng/ml Fc-tagged TNF-α+1 μM SMAC mimetic SM164+25 μM zVAD (TSZ) for different time periods, followed by immunopurification of the immunoprecipitated TNF-α-induced complex I using μMACS™ protein A/G microbeads, and western blot analysis using a specific RIPK1 antibody.

[6] = TNF-α-induced SIRS mouse model; format: in vivo; settings: C57BL/6 mice, 10 mg/kg i.p. 15 min before 1 mg/kg murine TNF-α i.v.
Procedure: Hypothermia and morbidity induced by a high dose of TNF-α is considered in the literature to be a model for systemic inflammatory response syndrome (SIRS) (Moerke C, et al. (2019); Newton K, et al. (2014); Duprez L, et al. (2011)). All mice (8 weeks old) used in this experiment were on C57BL/6 background and age-, sex-, and weight-matched. Recombinant carrier-free murine TNF-α was obtained from R&D Systems (Bio-Techne, Wiesbaden, Germany). Each mouse received a single bolus of 1 mg murine TNF-α/kg body weight in a total volume of […] phosphate-buffered saline, via the tail vein. In this setting, mice received 15 min before TNF-α application a single intraperitoneal (i.p.) injection (total volume per mouse was 200 μl) of either 2.5% DMSO in PBS (vehicle) or 10 mg primidone/kg body weight (as indicated). Thereafter, the animals (n=16 per group) were placed under permanent observation and survival was checked every 15 min. Survival is depicted in a Kaplan-Meier plot (*** p<0.001).

## CCC1(c2ccccc2)C(=O)NCNC1=O [primidone, 5-Ethyl-5-phenyl-1,3-diazinane-4,6-dione]
[1]
  Inhibition of anti-Fas antibody induced cell death (caspase-dependent, RIPK1-independent): no inhibitory effect
[2]
  Binding to RIPK1 kinase domain (prevention of kinase binding to immobilized ligand): does not inhibit RIPK1 by binding directly to its kinase domain
[3]
  Activation (phosphorylation) of NF-κB: Activation (phosphorylation) of NF-κB was detected
[4]
  Cells still alive, compound added 60 min after induction of cell death: 92.7%
  Cells still alive, compound added 3 hours after induction of cell death: 58.6%
[5]
  TNF-α-induced formation of complex I (RIPK1 binding to TNFR1): not influenced
[6]
  TNF-α-induced hypothermia: significantly improves
[6]; vs vehicle, p<0.001
  Survival after TNF-α injection: significantly enhanced survival
